Test [1] concerns the target T1, ENPP1 protein (Homo sapiens (Human), UniProt P22413). Put plainly: ENPP1 Inhibition Assay (thymidine 5′-monophosphate p-nitrophenol ester substrate). The test is classed as biochemical. Here is the method:
Assay Buffer: 1 mM CaCl2, 0.2 mM ZnCl2, 50 mM Tris, pH 9.0. Substrate: 8 mM Thymidine 5′-monophosphate p-nitrophenol ester sodium salt (Sigma Cat #T4510). Enzyme: 5 ng/L Recombinant Human ENPP-1 Protein (R&D Cat #6136-EN-010) in DMSO in 96-well clear assay plates
An eight point serial dilution of drugs was prepared in 10× in assay buffer with the final assay concentrations starting at 10 μM, 3 μM, 1 μM, 0.3 μM . . . 0 μM. A dilution of DMSO was included as a control. The assay plate was set up as follows with each well in duplicate: 81 μL assay buffer+10 μL ENPP1 inhibitor or DMSO+5 μL Substrate+4 μL Enzyme. Both the enzyme and substrate were added to opposite sides of the well to ensure that there was no interaction until all wells had both components. The plate was then centrifuged gently for 10 seconds, followed by an incubation at 37° C. for 45 minutes. The reaction was quantified by measuring absorbance at 405 nm using the Envision.
IC50 values are determined using GraphPad Prism 5 software. The data were entered as an X-Y plot into the software as percent inhibition for each concentration of the drug. The concentration values of the drug were log transformed and the nonlinear regression was carried out using the “sigmoidal dose-response (variable slope)” option within the GraphPad software to model the data and calculate IC50 values. The IC50 values reported are the concentration of drug at which 50% inhibition was reached.
Target sequence in this assay (P22413 whole entry, looked up, change not shown): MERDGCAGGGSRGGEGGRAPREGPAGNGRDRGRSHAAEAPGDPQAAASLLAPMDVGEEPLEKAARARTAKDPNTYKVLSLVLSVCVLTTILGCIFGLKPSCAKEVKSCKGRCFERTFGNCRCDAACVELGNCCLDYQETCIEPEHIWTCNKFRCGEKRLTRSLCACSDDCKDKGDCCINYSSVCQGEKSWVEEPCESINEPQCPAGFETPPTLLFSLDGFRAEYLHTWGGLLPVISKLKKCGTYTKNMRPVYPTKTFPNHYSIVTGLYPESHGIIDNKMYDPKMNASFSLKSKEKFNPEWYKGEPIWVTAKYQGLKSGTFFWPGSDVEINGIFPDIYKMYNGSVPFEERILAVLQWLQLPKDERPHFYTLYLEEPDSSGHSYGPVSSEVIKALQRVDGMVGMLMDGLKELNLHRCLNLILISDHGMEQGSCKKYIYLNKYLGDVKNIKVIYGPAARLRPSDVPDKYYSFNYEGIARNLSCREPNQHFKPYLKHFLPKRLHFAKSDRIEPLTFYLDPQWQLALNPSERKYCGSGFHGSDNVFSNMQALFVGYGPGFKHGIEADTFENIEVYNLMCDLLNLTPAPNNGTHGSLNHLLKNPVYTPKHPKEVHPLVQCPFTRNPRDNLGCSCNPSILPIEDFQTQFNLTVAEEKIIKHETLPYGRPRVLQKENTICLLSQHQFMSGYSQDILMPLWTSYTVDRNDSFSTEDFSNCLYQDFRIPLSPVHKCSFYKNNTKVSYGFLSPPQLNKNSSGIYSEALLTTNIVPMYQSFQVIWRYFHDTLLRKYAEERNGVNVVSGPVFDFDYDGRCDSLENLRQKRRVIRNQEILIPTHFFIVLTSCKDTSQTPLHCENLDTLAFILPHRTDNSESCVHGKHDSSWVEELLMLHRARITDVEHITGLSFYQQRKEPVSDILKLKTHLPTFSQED

In the next test the test system is UWB1.289. The experiment in a line: Chou-Talalay Synergy Study with Olaparib, UWB1.289. The test is classed as cell-based. The settings on record: UWB1.289, 72 hours. As for the experimental part: Cell Lines: MDA-MB-468 and UWB289.1 (ATCC). Cell Titer Glo (Promega cat #: G7572). 96-well TC treated, white assay plates
Cells were cultured according to ATCC tissue culture recommendations. Cells were plated in a 96-well tissue culture plate at a density of 1500 cells/well and allowed to settle overnight. The following day, both drugs were prepared at 10× concentration in the following ratios (Compound 22:Olaparib): 1:1, 10:1, and 1:10. The drugs were serially diluted to create an 8-point dose curve and 10 μL of each drug was added to the cells for a total volume of 100 μL/well. Plates were placed in a tissue culture incubator for 72 hours. Following incubation, each plate was treated with Cell Titer Glo according to vendor recommendation and luminescence was measured with the Envision Plate Reader. Data was analyzed using CalcuSyn software according to the methods described in Chou, Drug combination studies and their synergy quantification using the Chou-Talalay method, Cancer Res. 2010 Jan. 15; 70(2):440-6.
A Combination index (CI) value greater than 1 indicates […], equal to 1 indicates additive and less than 1 indicates synergy.

Test [2] addresses Recombinant Human ENPP-1 Protein (purified in-house) (Homo sapiens (Human), UniProt P22413). Put plainly: ENPP1 Assay (ATP), Example 2. The class given is biochemical.
Test [3] has as its target T1, ENPP1 protein. Put plainly: ENPP1 enzymatic assay with TMP substrate (FIG. 8). The class given is biochemical. Particulars: 5.0 ng ENPP1, 150 μM TMP substrate. Here is the method: FIG. 8 depicts results of a similar experiment. 5.0 ng of ENPP1 protein exposed to increasing doses of inhibitor (compound 78 or compound 107-02) for 10 minutes in solution, followed by the addition of 150 μM of TMP substrate. The assay was then incubated for 20 minutes and then read at 405 nm on the envision plate reader.
Target sequence in this assay (P22413 whole entry, looked up): as the sequence (P22413 whole entry, looked up, change not shown) above

Test [4] addresses T1, ENPP1 protein. The experiment in a line: ENPP1 Thermal Shift Assay (Example 1). Particulars: Table 2, FIG. 7, 100 μM drug, 1.0 μg ENPP1. The test is classed as binding. As for the experimental part: Assay Buffer (1 mM CaCl2, 0.2 mM ZnCl2, 50 mM Tris, pH 9.0) 5000×SYPRO Orange (ThermoFisher cat #S6651) 384-well PCR Plates
Each drug was prepared as a 10× solution in the assay buffer and SYPRO Orange was diluted to 10× concentration in water. Wells were set up in duplicate in a 384-well PCR plate as follows: 14 μL assay buffer, 2 μL ENPP1 Inhibitor or DMSO, 2 μL (0.5 μg) ENPP1 protein. Each well was mixed and incubated on ice for 5 minutes. Post incubation, 2 μL of SYPRO Orange was mixed into each well and followed by a gentle centrifugation. The protein melt reaction was run using ViiA7 software with temperatures beginning at 25° C. and increasing by 0.05° C./s to the maximum temperature of 99° C.
In a 384-well plate, 1.0 μg of ENPP1 protein incubated with 100 μM of the corresponding drug for 5 minutes. Each well exposed to increasing temperatures to determine an unfolding temperature of the protein.
Target sequence in this assay (P22413 whole entry, looked up, change not shown): as above

Like-named read-outs stand apart in the source and are kept apart here.

Recombinant Human ENPP-1 Protein (purified in-house), sequence (P22413 whole entry, looked up): as the sequence (P22413 whole entry, looked up, change not shown) above

The term IC50 denotes the point on the concentration scale where inhibition reaches its midpoint. A word on the ΔTm: it is the shift of the melting midpoint relative to a reference. Consider `COc1ccc(NC(=O)CSc2nc3c(C)c(C#N)ncc3[nH]2)cc1O` [Compound 78, 2-((6-Cyano-7-methyl-3H-imidazo[4,5-c]pyridin-2-yl)thio)-N-(3-hydroxy-4-methoxyphenyl) acetamide], for which the “inhibiting the activity of ENPP1” value at ENPP1 protein [1] (FIG. 1) is given as “effective”. For the same compound, the IC50 was determined as 79.7 nM on ENPP1 protein [1] (Table 1, FIG. 1, read-out: IC50); 0.0731 µM in test [2] (FIG. 5B, ATP substrate, read-out: IC50); 0.116 µM in test [2] (Table 5, ATP substrate, read-out: ENPP1 (IC50 μM) ATP). For the same compound, the “ED50 Drug Concentration Compound 78” value in the test with UWB1.289 was 48800 nM. On ENPP1 protein [3], the enzymatic activity result was “significant decrease”. Further, at ENPP1 protein [4] (NT 60.05), the “Tm (° C.)” value turned out to be 61.16 °C. On ENPP1 protein [4] (read-out: ΔTm (° C.)), the ΔTm at 100 µM was determined as 1.11 °C.
